From patent publication US9617286B2, “Fungicide N-[(trisubstitutedsilyl)methyl]-carboxamide derivatives” (BAYER INTELLECTUAL PROPERTY GMBH, priority 2011, dated 2017)

Test system: Pyrenophora teres
Assay: In vivo preventive test on Pyrenophora teres (barley)
Settings: preventive spray (DMF/alkylaryl polyglycol ether), 500 ppm of active ingredient, evaluated 7-9 days after inoculation
Protocol: Solvent: 49 parts by weight of N,N-dimethylformamide Emulsifier: 1 part by weight of alkylaryl polyglycol ether To produce a suitable preparation of active compound, 1 part by weight of active compound is mixed with the stated amounts of solvent and emulsifier, and the concentrate is diluted with water to the desired concentration. To test for preventive activity, young plants are sprayed with the preparation of active compound at the stated rate of application. One day after this treatment, the plants are inoculated with an aqueous spore suspension of Pyrenophora teres. The plants remain for 48 hours in an incubation cabinet at 22° C. and a relative atmospheric humidity of 100%. Then the plants are placed in a greenhouse at a temperature of approximately 20° C. and a relative atmospheric humidity of approximately 80%.

Row | Structure (SMILES) | Efficacy
1 | C[Si](C)(CN(C(=O)c1cccnc1C(F)(F)F)C1CC1)c1cccc(Cl)c1 [Example 33] | 80%
2 | C[Si](C)(CN(C(=O)c1nccnc1C(F)(F)F)C1CC1)c1ccc(Cl)cc1Cl [Example 58] | 100%
3 | C[Si](C)(CN(C(=O)c1cccnc1C(F)F)C1CC1)c1cc(Cl)cc(Cl)c1 [Example 68] | 80%
4 | C[Si](C)(CN(C(=O)c1cccnc1C(F)(F)F)C1CC1)c1ccc2ccccc2c1 [Example 78] | 95%
5 | C[Si](C)(CN(C(=O)c1nccnc1C(F)(F)F)C1CC1)c1cccs1 [Example 82] | 95%
6 | C[Si](C)(Cc1ccc(Cl)cc1Cl)CN(C(=O)c1nccnc1C(F)(F)F)C1CC1 [Example 111] | 95%

Test system: not listed separately
Assay: log P by HPLC on reversed-phase column (C 18), EEC Directive 79/831 Annex V.A8
Format: physicochemical
Settings: 40° C., 0.1% aqueous formic acid and acetonitrile, linear gradient 10% to 90% acetonitrile
Protocol: In table 1, the log P values were determined in accordance with EEC Directive 79/831 Annex V.A8 by HPLC (High Performance Liquid Chromatography) on a reversed-phase column (C 18), using the method described below:
Temperature: 40° C.; Mobile phases: 0.1% aqueous formic acid and acetonitrile; linear gradient from 10% acetonitrile to 90% acetonitrile.
Calibration was carried out using unbranched alkan-2-ones (comprising 3 to 16 carbon atoms) with known log P values (determination of the log P values by the retention times using linear interpolation between two successive alkanones). lambda-max-values were determined using UV-spectra from 200 nm to 400 nm and the peak values of the chromatographic signals.

Row | Structure (SMILES) | logP
7 | CC1=C(C(=O)NC[Si](C)(C)c2ccccc2)SCCO1 [Example 6] | 3.13
8 | CCc1ccccc1[Si](C)(C)CN(C(=O)c1cccnc1Cl)C1CC1 [Example 18] | 4.16
9 | CCc1ccccc1[Si](C)(C)CN(C(=O)c1cccnc1C(F)F)C1CC1 [Example 19] | 4.06
10 | C[Si](C)(CN(C(=O)c1cccnc1Cl)C1CC1)c1ccccc1Cl [Example 23] | 3.94
11 | C[Si](C)(CN(C(=O)c1cccnc1C(F)(F)F)C1CC1)c1ccccc1Cl [Example 27] | 4.31
12 | C[Si](C)(CN(C(=O)c1ccccc1C(F)(F)F)C1CC1)c1cccc(Cl)c1 [Example 31] | 5.03
13 | C[Si](C)(CN(C(=O)c1cccnc1C(F)(F)F)C1CC1)c1cccc(Cl)c1 [Example 33] | 4.34
14 | C[Si](C)(CN(C(=O)c1cccnc1Cl)C1CC1)c1cccc(Cl)c1 [Example 35] | 3.96
15 | CC[Si](C)(CN(C(=O)c1cccnc1C(F)(F)F)C1CC1)c1ccccc1Cl (stereo not shown) [Example 37] | 4.71
16 | CC1=C(C(=O)N(C[Si](C)(C)c2ccccc2Cl)C2CC2)SCCO1 [Example 43] | 4.29
17 | C[Si](C)(CN(C(=O)c1cccnc1Cl)C1CC1)c1ccccc1C(F)(F)F [Example 53] | 4.04
18 | C[Si](C)(CNC(=O)c1cccnc1C(F)F)c1ccc(Cl)cc1Cl [Example 57] | 3.64
19 | C[Si](C)(CN(C(=O)c1nccnc1C(F)(F)F)C1CC1)c1ccc(Cl)cc1Cl [Example 58] | 5.25
20 | C[Si](C)(CN(C(=O)c1cccnc1Cl)C1CC1)c1ccc(Cl)cc1Cl [Example 59] | 4.64
21 | C[Si](C)(CN(C(=O)c1ccccc1C(F)(F)F)C1CC1)c1ccc(Cl)cc1Cl [Example 61] | 5.72
22 | C[Si](C)(CN(C(=O)c1nccnc1C(F)(F)F)C1CC1)c1cc(Cl)cc(Cl)c1 [Example 64] | 4.95
23 | C[Si](C)(CN(C(=O)c1cccnc1Cl)C1CC1)c1cc(Cl)cc(Cl)c1 [Example 65] | 4.61
24 | C[Si](C)(CN(C(=O)c1ccccc1C(F)(F)F)C1CC1)c1cc(Cl)cc(Cl)c1 [Example 66] | 5.65
25 | C[Si](C)(CN(C(=O)c1cccnc1C(F)(F)F)C1CC1)c1cc(Cl)cc(Cl)c1 [Example 67] | 4.95
26 | C[Si](C)(CN(C(=O)c1cccnc1C(F)F)C1CC1)c1cc(Cl)cc(Cl)c1 [Example 68] | 4.49
27 | C[Si](C)(CN(C(=O)c1cccnc1Cl)C1CC1)c1cccc2ccccc12 [Example 69] | 4.15
28 | C[Si](C)(CN(C(=O)c1cccnc1C(F)(F)F)C1CC1)c1cccc2ccccc12 [Example 73] | 4.51
29 | C[Si](C)(CN(C(=O)c1cccnc1Cl)C1CC1)c1ccc2ccccc2c1 [Example 75] | 4.23
30 | C[Si](C)(CN(C(=O)c1cccnc1C(F)(F)F)C1CC1)c1ccc2ccccc2c1 [Example 78] | 4.56

Row | Structure (SMILES) | logP
31 | C[Si](C)(CN(C(=O)c1ccccc1C(F)(F)F)C1CC1)c1ccc2ccccc2c1 [Example 80] | 5.25
32 | C[Si](C)(CN(C(=O)c1cccnc1C(F)(F)F)C1CC1)c1cccs1 [Example 81] | 3.80
33 | C[Si](C)(CN(C(=O)c1nccnc1C(F)(F)F)C1CC1)c1cccs1 [Example 82] | 4.01
34 | C[Si](C)(CN(C(=O)c1cccnc1Cl)C1CC1)c1cccs1 [Example 83] | 3.39
35 | C[Si](C)(CN(C(=O)c1ccccc1C(F)(F)F)C1CC1)c1cccs1 [Example 85] | 4.51
36 | C[Si](C)(CN(C(=O)c1cccnc1Cl)C1CC1)c1ccsc1 [Example 88] | 3.33
37 | C[Si](C)(CN(C(=O)c1ccccc1C(F)(F)F)C1CC1)c1ccsc1 [Example 90] | 4.44
38 | C[Si](C)(Cc1ccccc1Cl)CN(C(=O)c1cccnc1C(F)(F)F)C1CC1 [Example 103] | 4.59
39 | C[Si](C)(Cc1cccc(Cl)c1)CN(C(=O)c1cccnc1C(F)(F)F)C1CC1 [Example 109] | 4.61
40 | C[Si](C)(Cc1ccc(Cl)cc1Cl)CN(C(=O)c1nccnc1C(F)(F)F)C1CC1 [Example 111] | 5.45
41 | C[Si](C)(Cc1ccc(Cl)cc1Cl)CN(C(=O)c1cccnc1Cl)C1CC1 [Example 112] | 4.90
42 | C[Si](C)(Cc1ccc(Cl)cc1Cl)CN(C(=O)c1ccccc1C(F)(F)F)C1CC1 [Example 114] | 5.94
43 | C[Si](C)(Cc1ccc(Cl)cc1Cl)CN(C(=O)c1cccnc1C(F)(F)F)C1CC1 [Example 115] | 5.22
44 | C[Si](C)(Cc1cc(Cl)cc(Cl)c1)CN(C(=O)c1nccnc1C(F)(F)F)C1CC1 [Example 116] | 5.45
45 | C[Si](C)(Cc1cc(Cl)cc(Cl)c1)CN(C(=O)c1cccnc1Cl)C1CC1 [Example 118] | 4.92
46 | C[Si](C)(Cc1cc(Cl)cc(Cl)c1)CN(C(=O)c1ccccc1C(F)(F)F)C1CC1 [Example 120] | 5.94
47 | C[Si](C)(Cc1cc(Cl)cc(Cl)c1)CN(C(=O)c1cccnc1C(F)(F)F)C1CC1 [Example 121] | 5.22
48 | CN(C[Si](C)(C)c1cc(Cl)cc(Cl)c1)C(=O)c1cccnc1C(F)F [Example 122] | 3.92
49 | C[Si](C)(CNC(=S)c1cccnc1C(F)F)c1ccccc1Cl [Example 123] | 3.83
50 | C[Si](C)(CN(C(=S)c1cccnc1C(F)F)C1CC1)c1ccc(Cl)cc1Cl [Example 124] | 5.13
51 | C[Si](C)(CN(C(=S)c1cccnc1C(F)F)C1CC1)c1ccc2ccccc2c1 [Example 125] | 4.72
52 | C[Si](C)(CN(C(=S)c1nccnc1C(F)(F)F)C1CC1)c1ccc2ccccc2c1 [Example 126] | 5.35
53 | C[Si](C)(Cc1ccccc1Cl)CN(C(=S)c1cccnc1C(F)F)C1CC1 [Example 127] | 4.76

Now from value to compound:

Row | logP | Structure (SMILES)
54 | 3.50 | C[Si](C)(CN(C(=O)c1cccnc1Cl)C1CC1)c1ccccc1 [Example 4]
55 | 5.14 | C[Si](C)(CN(C(=O)c1ccccc1I)C1CC1)c1ccccc1Cl [Example 24]
56 | 5.03 | C[Si](C)(CN(C(=O)c1ccccc1C(F)(F)F)C1CC1)c1ccccc1Cl [Example 25]
57 | 5.14 | C[Si](C)(CN(C(=O)c1ccccc1I)C1CC1)c1cccc(Cl)c1 [Example 30]
58 | 5.88 | C[Si](C)(CN(C(=O)c1ccccc1I)C1CC1)c1ccc(Cl)cc1Cl [Example 60]
59 | 5.31 | C[Si](C)(CN(C(=O)c1ccccc1I)C1CC1)c1cccc2ccccc12 [Example 70]
60 | 5.19 | C[Si](C)(CN(C(=O)c1ccccc1C(F)(F)F)C1CC1)c1cccc2ccccc12 [Example 71]
61 | 5.36 | C[Si](C)(CN(C(=O)c1ccccc1I)C1CC1)c1ccc2ccccc2c1 [Example 76]
62 | 4.59 | C[Si](C)(CN(C(=O)c1ccccc1I)C1CC1)c1cccs1 [Example 84]
63 | 4.49 | C[Si](C)(CN(C(=O)c1ccccc1I)C1CC1)c1ccsc1 [Example 89]
64 | 3.87 | C[Si](C)(Cc1ccccc1)CN(C(=O)c1cccnc1Cl)C1CC1 [Example 94]
65 | 5.00 | C[Si](C)(Cc1ccccc1)CN(C(=O)c1ccccc1I)C1CC1 [Example 95]
66 | 4.90 | C[Si](C)(Cc1ccccc1)CN(C(=O)c1ccccc1C(F)(F)F)C1CC1 [Example 96]
67 | 4.19 | C[Si](C)(Cc1ccccc1)CN(C(=O)c1cccnc1C(F)(F)F)C1CC1 [Example 97]
68 | 4.11 | C[Si](C)(Cc1ccccc1Cl)CN(C(=O)c1cccnc1C(F)F)C1CC1 [Example 98]
69 | 4.25 | C[Si](C)(Cc1ccccc1Cl)CN(C(=O)c1cccnc1Cl)C1CC1 [Example 100]
70 | 5.45 | C[Si](C)(Cc1ccccc1Cl)CN(C(=O)c1ccccc1I)C1CC1 [Example 101]
71 | 5.31 | C[Si](C)(Cc1ccccc1Cl)CN(C(=O)c1ccccc1C(F)(F)F)C1CC1 [Example 102]
72 | 4.30 | C[Si](C)(Cc1cccc(Cl)c1)CN(C(=O)c1cccnc1Cl)C1CC1 [Example 106]
73 | 5.45 | C[Si](C)(Cc1cccc(Cl)c1)CN(C(=O)c1ccccc1I)C1CC1 [Example 107]
74 | 5.31 | C[Si](C)(Cc1cccc(Cl)c1)CN(C(=O)c1ccccc1C(F)(F)F)C1CC1 [Example 108]
75 | 6.14 | C[Si](C)(Cc1ccc(Cl)cc1Cl)CN(C(=O)c1ccccc1I)C1CC1 [Example 113]
76 | 6.14 | C[Si](C)(Cc1cc(Cl)cc(Cl)c1)CN(C(=O)c1ccccc1I)C1CC1 [Example 119]
